Experimental data taken from patent US20210379112A1, “STEM CELL THERAPY” (PLASTICELL LIMITED, priority 2018, published 2021).

Assays:
UCB derived CD133+ cells = assay: Ex vivo expansion of umbilical cord blood CD133+ cells (flow cytometry, counting beads); assay type: cell-based, human; conditions: for fold expansion of total nucleated cells (TNC) compared to cells grown in basal media / fold expansion of HSC compared to cells grown in basal media / fold expansion of HSC (Lin−, CD38−, CD34+, CD45RA−, CD133+, CD90+, CD49f+) above basal media containing cytokines: UCB cells; for fold expansion of total nucleated cells (TNC) compared to cells grown in basal media: 5 days culture, vs basal media with cytokines, WR1065 added 16-20 h before harvest; for fold expansion of HSC compared to cells grown in basal media / fold expansion of HSC (Lin−, CD38−, CD34+, CD45RA−, CD133+, CD90+, CD49f+) above basal media containing cytokines: 5 days; for fold expansion of HSC compared to cells grown in basal media: result in words, FIG. 7-12; for fold expansion of HSC (Lin−, CD38−, CD34+, CD45RA−, CD133+, CD90+, CD49f+) above basal media containing cytokines: scriptaid 1 μM, WR1065 100 μM, FIG. 3
Description: Human UCB units were collected with written informed pre-consent and ethical approval from Oxford and Berkshire National Research Ethical Committees and studies conducted with approval of the NHSBT research committee. UCB mononuclear cells (MNC) were isolated by density gradient centrifugation on lymphocyte separation medium 1077 (PAA Laboratories, Pasching, Austria; density<1.077 g/ml). CD133+ cells were isolated from the MNC with immunomagnetic beads (Miltenyi Biotec, Germany). After isolation, the cells were cryopreserved in 10% DMSO in FCS (fetal calf serum) and stored at −150° C. in aliquots of 1×10^5 cells/vial. Cells were analysed for the purity of the isolation with flow cytometry on a BD LSR II (BD Biosciences, CA) using CD34-APC, CD133-PE and the appropriate isotype controls (all Miltenyi Biotec). Bone marrow derived CD133+ cells were obtained commercially from Lonza and peripheral blood CD133+ cells were isolated using immunomagnetic beads as above from total peripheral blood mononuclear cells obtained commercially from Lonza Biologies.
Vials from 2 or 3 donors were thawed and pooled in StemSpan ACF media (Stem Cell Technologies) containing 100 ng/mL SCF, 100 ng/mL FLT3LG and 20 ng/mL TPO (all from Miltenyi Biotec). After counting, cells were plated in 96 well round bottom suspension plates at 20,000 cells/well in the above media. Cells were allowed to recover overnight in these conditions in a 37° C. humidified incubator with 5% CO2.
The next day cells were harvested from the plates counted, and seeded into 24 well Nanex plates (Compass Biomedical) or standard tissue culture treated plates at 2500 cells/well in 1 mL basal media (StemSpan ACF with 100 ng/mL SCF, 100 ng/mL FLT3LG and 20 ng/mL TPO) containing an HDAC inhibitor (for most experiments scriptaid was used at a concentration of 1 μM). An aliquot of cells was used for CFU analysis and another for flow cytometry analysis.
After 3 days in culture the media was either replaced or supplemented with fresh media with the cytokines (SCF, TPO and FLT3LG) and the HDAC inhibitors (scriptaid 1 μM). Sixteen to twenty hours prior to harvest WR1065 was added at a concentration of 100 μM. After total of 5 days in expansion, cells are harvested, counted and analysed by flow cytometry.
Cells were harvested, washed and stained in 3% FBS in PBS using a panel of pre-conjugated antibodies. Cells were incubated with antibodies on ice for 30 min, then washed twice in 3% FBS in PBS and resuspended in 250 uL of above buffer before being analysed using a BD Canto II flow cytometer. [Antibody panel was as follows: 5 Lin custom cocktail (CD235a, CD4, CD10, CD11b and CD19) APC-Vio770, CD38-PE-Vio770, CD34-PerCP-Vio700, CD133-PE, CD45RA-VioBlue, CD49f-FITC, CD90-APC (all from Miltenyi Biotec).]
Cell number was measured using flow cytometry with the aid of counting beads (CountBright beads Life Technologies).

[1] = system: bone marrow derived CD34+ cells; conditions: pre-treatment of bone marrow derived CD34+ cells, in vitro; background; cited from earlier work
irradiated NSG mice = assay: Repopulation capacity of expanded cord blood cells in immuno-compromised NSG mice (secondary recipients); conditions: secondary recipient mice, bled at week 8; mice received cord blood cells expanded ex vivo with the substance; FIG. 15
Experimental: The effect of different ex vivo expansion protocols on the ability of the cells to repopulate bone marrow in vivo was investigated. Cells were obtained from cord blood and four cell preparations were produced—1. Unexpanded cells, 2. Cells expanded in the presence of vehicle, 3. Cells expanded in the presence of scriptaid (expanded+SS—FIG. 15), 4. Cells expanded in the presence of scriptaid and WR1065 (expanded+SW—FIG. 15). These cell preparations were then injected into irradiated adult (<8 weeks) male NSG (NOD.Cg-Prkdc^scid II2rcf^Im1Wjl/SzJ) mice. Flow cytometry analysis was performed on blood samples taken at week 15 (CD45^hu & CD45^mu only) to identify animals with evidence of clear engraftment (human CD45+ cells in the blood at week 12, and week 15 human CD45+ count above 1%). Ten of the animals with human CD45+ count above 1%, were used as donors for 10 secondary recipients in one to one manner. At week 20 after cell administration the primary animals were sacrificed. Bone marrow samples were harvested from femurs and tibias and the cells were washed before being counted. 50% of the recovered cells were injected into secondary irradiated animals. In this manner the long term engraftment capabilities of the expanded cells could be determined. The secondary animals were bled at week 8 and whole blood samples analysed by FACs for evidence of engraftment. […]

[2] = UCB cells from three separate donors and a pooled sample, FIG. 13

Compound	fold expansion of total nucleated cells (TNC) compared to cells grown in basal media (UCB derived CD133+ cells)	fold expansion of HSC compared to cells grown in basal media (UCB derived CD133+ cells)	fold expansion of HSC (Lin−, CD38−, CD34+, CD45RA−, CD133+, CD90+, CD49f+) above basal media containing cytokines (UCB derived CD133+ cells)	further results
Cc1cc(C)cc(C(=O)NOCCCCCC(=O)NO)c1 [LMK235]	slightly lower	significantly increased		
Nc1cc(F)ccc1NC(=O)/C=C/c1cnn(C/C=C/c2ccccc2)c1 [RGFP966]	increase	similar		
CN1CCc2c(c3ccccc3n2Cc2ccc(C(=O)NO)cc2)C1 [Tubastatin A]	similar	significantly increased		
NCCCNCCS [WR1065]			around 3 fold	enhancement of formation of CFU-GEMM and BFU-E colonies [1]: ≤ 38 fold
Cn1cc(CNCC2CCN(c3ncc(C(=O)NO)cn3)CC2)c2ccccc21 [quisinostat]	slightly lower	significantly increased		
O=C(CCCCCN1C(=O)c2cccc3cccc(c23)C1=O)NO [scriptaid]	slightly reduced		approximately 10 fold	fold expansion of HSC compared to cells cultured in basal media on different culture surfaces (UCB derived CD133+ cells; Nanex scaffolds, TC treated Corning 24 well plates, suspension Greiner Bio 24 well plates, effect similar across surfaces, FIG. 14): significantly increased; fold expansion of HSC compared to cells cultured on basal media, average (UCB derived CD133+ cells; [2]): 30 fold; fold expansion of HSC compared to cells cultured on basal media, range (UCB derived CD133+ cells; [2]): 10-55 fold; proportion of CD133+/CD34+ cells compared to cells grown on cytokines alone (UCB derived CD133+ cells; after 5 days in culture): increase; average frequency of human CD45+ cells in whole blood, percentage of viable singlets (irradiated NSG mice): 0.04%
